# Reference: patent EP1072247A2, “Cosmetic and dermatological compositions based on o/w emulsions” (Beiersdorf Aktiengesellschaft, priority 1999, dated 2001)
# Assay: Interfacial tension of lipids against water (measure of polarity)
# Format: physicochemical
# Settings: lipids below 30 mN/m are regarded as polar
# From the text: Öle und Fette unterscheiden sich unter anderem in ihrer Polarität, welche schwierig zu definieren ist. Es wurde bereits vorgeschlagen, die Grenzflächenspannung gegenüber Wasser als Maß für den Polaritätsindex eines Öls bzw. einer Ölphase anzunehmen. Dabei gilt, daß die Polarität der betreffenden Ölphase um so größer ist, je niedriger die Grenzflächenspannung zwischen dieser Ölphase und Wasser ist. Erfindungsgemäß wird die Grenzflächenspannung als ein mögliches Maß für die Polarität einer gegebenen Ölkomponente angesehen.
# Die Grenzflächenspannung ist diejenige Kraft, die an einer gedachten, in der Grenzfläche zwischen zwei Phasen befindlichen Linie der Länge von einem Meter wirkt. Die physikalische Einheit für diese Grenzflächenspannung errechnet sich klassisch nach der Beziehung Kraft/Länge und wird gewöhnlich in mN/m (Millinewton geteilt durch Meter) wiedergegeben. Sie hat positives Vorzeichen, wenn sie das Bestreben hat, die Grenzfläche zu verkleinern. Im umgekehrten Falle hat sie negatives Vorzeichen. Als polar im Sinne der vorliegenden Erfindung werden Lipide angesehen, deren Grenzflächenspannung gegen Wasser weniger als 30 mN/m beträgt.
# Unpolare Öle sind beispielsweise solche, welche gewählt werden aus der Gruppe der verzweigten und unverzweigten Kohlenwasserstoffe und -wachse, insbesondere Vaseline (Petrolatum), Paraffinöl, Squalan und Squalen, Polyolefine und hydrogenierte Polyisobutene. […] Tabelle 1
row,Grenzflächenspannungen gegen Wasser,Compound
1,"22,1 mN/m","CCCCCCCCOCCCCCCCC [Cetiol® OE, Dicaprylyl Ether]"
2,"21,9 mN/m","CCCCCCCCCCCCCCCCCC(=O)OC(C)C [Isopropylstearat, Isopropyl Stearate]"
3,"29,7 mN/m","CCCCCCCCOC(=O)CCCCCCCCCCCCCCC(C)C [Prisorine® 2036, Octyl Isostearate]"
4,"28,7 mN/m","CCCCCCCCCCCCCCCCCCOC(=O)CCCCCC [Tegosoft® SH, Stearyl Heptanoate]"
5,"20,2 mN/m","CCCCCCCC(=O)OCC(COC(=O)CCCCCCC)OC(=O)CCCCCCC [Trivent® OCG, Tricaprylin]"
6,"23,1 mN/m",Octyl Palmitate [Cegesoft® C24]
7,"28,4 mN/m",Octyl Stearate [Cetiol® 868]
